From US20060270648A1, “USE OF POLYAMINES WITH ANTIBIOTICS” (priority 2005, published 2006) come the findings set out here.

Holding throughout (assay type): cell-based
The test system of assay [1] is P. aeruginosa PAO1. Description: MIC of antibiotics against P. aeruginosa PAO1 with or without polyamines.
Protocol: Various strains of bacteria, including P. aeruginosa and e. coli were grown on Luria-Bertani (LB) agar/broth or Mueller-Hinton (MH) agar/broth. […] The antibiotics, chemicals, and/or polyamines were dissolved in double distilled water or solvent and thereafter filtered through a 0.4 μm disposable membranes.
The MIC values of the strains associated with various combinations of polyamines and antibiotics were determined using standard two-fold agar dilutions techniques and broth dilutions techniques in Mueller-Hinton broth. The lowest concentration of drug with no visible turbidity was deemed the MIC.
Assay [2] has as its system P. aeruginosa PAO1. Description: Time killing assay of P. aeruginosa PAO1 in human serum (FIG. 4). The conditions noted are these: presence or absence of 2 mM spermine. The protocol: Time-killing assays were performed for various bacteria samples. Briefly, the tested bacteria were grown to mid-log phase in Mueller-Hinton broth media. […] As a control group, cells were diluted in a sodium phosphate without any additional compounds. Aliquots were withdrawn at specific time intervals and spread on LB agar plates and incubated overnight at 37 C. The percent of colonies that survived were determined relative to the control.

Assay [3] deals with outer membrane permeability. Description: Outer membrane permeabilization assay (β-lactamase activity in whole cells or released into suspension). Particulars: 20 mM (FIG. 7). As for the experimental part: The β-lactamase activity was determined by a spectrophotometric method using nitrocefin as a substrate. After the β-lactamase was extracted from the cells, the β-lactamase activity was monitored by absorbance changes in wavelength at 486 nm with a molar extinction coefficient of 20500. The extent of hydrolysis was a reflection of the amount of enzyme remaining uninhibited.
An outer membrane permeabilization assay was performed by examining the release of the chromosomally encoded β-lactamase. Briefly, stationary phase cells were diluted 1:59 into 20 mL pre-warmed MMP broth and cultured in an incubator at 350 rpm and at 37 C for 5 hours. After carbenicillin (200 μg/mL) was added to induce β-lactamase activity, the culture was incubated for additional 5 hours. The cells were harvested by centrifugation at 5,000×g for 10 minutes and washed once with 0.05M sodium phosphate buffer at pH 7.2. The cell pellet was resuspended in 5 mL of the same buffer and divided into 1 mL aliquots. […] […] The reaction mixtures were incubated at room temperature for 5 minutes and immediately centrifuged at full speed (15000×g) for 20 minutes and the supernatant was used for β-lactamase sources. β-lactamase activity was determined as described above using 300 μL of the supernatant.

Consider `NCCCNCCCCNCCCN` [Spermine], for which the “MICs to carbenicillin in the indicated concentration of polyamines” value was 64 µg/mL with P. aeruginosa PAO1 [1] (0 mM polyamine); 16 µg/mL in the assay on P. aeruginosa PAO1 [1] (0.5 mM polyamine); 4 µg/mL in the assay on P. aeruginosa PAO1 [1] (1 mM polyamine); 4 µg/mL with P. aeruginosa PAO1 [1] (5 mM polyamine); 4 µg/mL with P. aeruginosa PAO1 [1] (10 mM polyamine); 4 µg/mL in the assay on P. aeruginosa PAO1 [1] (20 mM polyamine). Moreover, the “growth of P. aeruginosa PAO1 in human serum” value with P. aeruginosa PAO1 [2] is given as “not affected”. In addition, the β-lactamase activity detected result in assay [3] was “only a very low level”.
